Experimental data: patent US20220211594A1, “TOPICAL COMPOSITIONS” (DSM IP ASSETS B.V., priority 2019, published 2022)

Assays:
[1] = system: Bacterial cocktail (E. Coli, P. aeruginosa, S. aureus); assay: Preservation challenge test of inoculated O/W emulsion (ISO 11930), bacterial cocktail; format: cell-based; conditions: PTT: 0.3 wt -%, HG & EHG: 0.4 wt.-%
Description: (§1) The evaluation of the preservation of a cosmetic formulation is based on inoculation of the formulation as outlined in table 1 with calibrated inocula (prepared from relevant strains of micro-organisms). Therefore, to each formulation 0.2 ml of calibrated inoculum is added to obtain between 1×10^4 cfu/ml and 1×10^7 cfu/ml or g for bacteria, and between 1×10^2 cfu/ml and 1×10^6 cfu/ml or g for C. albicans and A. brasiliensis in the formulation (final concentration), which is mixed thoroughly into the formulation to ensure a homogeneous distribution of the inoculum. Then the respective containers containing the inoculated formulations are stored @ 22.5±2.5° C. At each specified sampling interval (initial (T0), 7 days (T7) and 28 days (T28)) 1 g of the inoculated formulation is taken and a dilution prepared to perform the enumeration of surviving micro-organisms. Then, for each time and each strain/strain mixture, the average log value is calculated which is represented in tables 2-6. (Procedure: see ISO 11930, chapter 5.2.-5.6.3.4. (page 3-13))

A. brasiliensis = assay: Preservation challenge test of inoculated O/W emulsion (ISO 11930), A. brasiliensis; format: cell-based, Aspergillus brasiliensis
Description: as §1

C. albicans = assay: Preservation challenge test of inoculated O/W emulsion (ISO 11930), C. albicans; format: cell-based, Candida albicans; conditions: PTT: 0.4 wt.-%, HG & EHG: 0.6 wt.-%
Description: as §1

[2] = PTT: 0.1 wt.-%, HG & EHG: 0.9 wt.-%, time 0 days
[3] = PTT: 0.1 wt.-%, HG & EHG: 0.9 wt.-%, time 7 days
[4] = PTT: 0.1 wt.-%, HG & EHG: 0.9 wt.-%, time 28 days
[5] = PTT: 0.3 wt.-%, HG & EHG: 0.4 wt.-%, time 0 days
[6] = PTT: 0.3 wt.-%, HG & EHG: 0.4 wt.-%, time 7 days
[7] = PTT: 0.3 wt.-%, HG & EHG: 0.4 wt.-%, time 28 days
[8] = PTT: 0.4 wt.-%, HG & EHG: 0.6 wt.-%, time 0 days
[9] = PTT: 0.4 wt.-%, HG & EHG: 0.6 wt.-%, time 7 days
[10] = PTT: 0.4 wt.-%, HG & EHG: 0.6 wt.-%, time 28 days

| Structure (SMILES) | Average log [cfu/ml] ([1]; time 0 days) | Average log [cfu/ml] ([1]; time 7 days) | Average log [cfu/ml] ([1]; time 28 days) | Average log [cfu/ml] (A. brasiliensis; [2]) | Average log [cfu/ml] (A. brasiliensis; [3]) | Average log [cfu/ml] (A. brasiliensis; [4]) | Average log [cfu/ml] (A. brasiliensis; [5]) | Average log [cfu/ml] (A. brasiliensis; [6]) | Average log [cfu/ml] (A. brasiliensis; [7]) | Average log [cfu/ml] (A. brasiliensis; [8]) | Average log [cfu/ml] (A. brasiliensis; [9]) | Average log [cfu/ml] (A. brasiliensis; [10]) | Average log [cfu/ml] (C. albicans; time 0 days) | Average log [cfu/ml] (C. albicans; time 7 days) | Average log [cfu/ml] (C. albicans; time 28 days) |
| --- | --- | --- | --- | --- | --- | --- | --- | --- | --- | --- | --- | --- | --- | --- | --- |
| CC(C)CCCC(C)CCCC(C)CCCC(C)(O)C(O)CO (stereo not drawn) [PTT, 3,7,11,15-tetramethyl-hexadecane-1,2,3-triol] | 6.5 log [cfu/ml] | 2 log [cfu/ml] | 2 log [cfu/ml] | 2.1 log [cfu/ml] | 3.6 log [cfu/ml] | 4.4 log [cfu/ml] | 6.3 log [cfu/ml] | 5.7 log [cfu/ml] | 5.8 log [cfu/ml] | 1.7 log [cfu/ml] | 3.5 log [cfu/ml] | 4.5 log [cfu/ml] | 3.0 log [cfu/ml] | 6.8 log [cfu/ml] | 7.1 log [cfu/ml] |
| CCCCCCOCC(O)CO (stereo not drawn) [HG, 3-(hexyloxy)-1,2-propanediol] | 4.9 log [cfu/ml] | 5.7 log [cfu/ml] | 5.6 log [cfu/ml] | 4.2 log [cfu/ml] | 1.3 log [cfu/ml] | 0 log [cfu/ml] | 4.7 log [cfu/ml] | 3.7 log [cfu/ml] | 3.5 log [cfu/ml] | 4.3 log [cfu/ml] | 3.6 log [cfu/ml] | 3.1 log [cfu/ml] | 4.3 log [cfu/ml] | 3.6 log [cfu/ml] | 3.1 log [cfu/ml] |
| CCCCC(CC)COCC(O)CO (stereo not drawn) [EHG, Ethylhexyl glycerine] | 5.3 log [cfu/ml] | 7.0 log [cfu/ml] | 6.5 log [cfu/ml] | 4.6 log [cfu/ml] | 4.2 log [cfu/ml] | 4.5 log [cfu/ml] | 4.6 log [cfu/ml] | 4.6 log [cfu/ml] | 4.6 log [cfu/ml] | 4.6 log [cfu/ml] | 4.4 log [cfu/ml] | 4.6 log [cfu/ml] | 3.2 log [cfu/ml] | 6.1 log [cfu/ml] | 6.0 log [cfu/ml] |
